These results are taken from PubChem BioAssay (NCI).

Some test systems named below: UACC-257 melanoma; SF-268 CNS; EKVX NSCLC; HCT-116 colon; TK-10 renal; HS 578T breast; HL-60(TB) leukemia; HOP-62 NSCLC; LOX IMVI melanoma; K-562 leukemia.
Common to all, as to assay: NCI tumour cell line growth inhibition, 48 h

Where “and” joins values, the source holds several entries; their conditions need not be identical. Equal values may be shown once.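 Step 1: Grow cells in 96-well plates. Step 2: Expose to compound for 48 hours at 5 concentrations. Step 3: Interpolate endpoints linearly; if unreached, use highest concentration. The concentration for 50% growth inhibition is given as GI50. TGI is the concentration that stops growth completely.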 Where only a bound is given, the exact number is not on record here.

In the case of `O=C1c2ccccc2-c2c1c1c(=O)[nH]c3ccccc3c1n2Cc1ccccc1`, the GI50 is over 100 µM in the assay on UACC-257 melanoma; 17.7 µM in the assay with SF-268 CNS; 30.4 µM in the assay on EKVX NSCLC; 39.9 µM in the assay on HCT-116 colon; 15.1 µM in the assay with TK-10 renal; 16.5 µM in the assay on HS 578T breast. Also, the GI50 with HL-60(TB) leukemia is over 100 µM; in the assay with HOP-62 NSCLC, 25.6 µM; in the assay on LOX IMVI melanoma, 31.3 µM; with K-562 leukemia it was over 100 µM. Besides, the TGI in the assay on UACC-257 melanoma was over 100 µM; with SF-268 CNS, 48.7 µM; with EKVX NSCLC, 99.5 µM; in the assay with HCT-116 colon, over 100 µM; with TK-10 renal, 29.2 µM; in the assay with HS 578T breast it was 35.7 µM. The TGI in the assay with HL-60(TB) leukemia is over 100 µM; with HOP-62 NSCLC, 49.1 µM; in the assay on LOX IMVI melanoma it was over 100 µM; in the assay with K-562 leukemia, over 100 µM.

Consider `Cc1cnc(NC(=O)Nc2cc(Br)c(C)cc2OC[C@@H]2CNCCO2)cn1`, for which the GI50 with UACC-257 melanoma was 1.59 µM and 2.44 µM; in the assay on SF-268 CNS it was 3.66 µM and 2.33 µM; in the assay on EKVX NSCLC, 3.22 µM and 3.24 µM; in the assay with HCT-116 colon it was 3.09 µM and 3.35 µM; in the assay on TK-10 renal it was 0.703 µM and 2.18 µM; in the assay on HS 578T breast, 0.572 µM and 0.771 µM. Moreover, the GI50 with HL-60(TB) leukemia is 0.388 µM and 0.545 µM; in the assay with HOP-62 NSCLC, 0.539 µM and 1.65 µM; in the assay on LOX IMVI melanoma, 0.828 µM and 1.45 µM; in the assay on K-562 leukemia it was 0.466 µM and 0.419 µM. The TGI in the assay with UACC-257 melanoma was 3.59 µM and 8.37 µM; in the assay on SF-268 CNS, > 10 µM and 13.6 µM; in the assay with EKVX NSCLC, > 10 µM and 15.9 µM; in the assay with HCT-116 colon it was > 10 µM and 13.3 µM; in the assay on TK-10 renal, > 10 µM and 16.6 µM; in the assay with HS 578T breast, > 10 µM and 8.82 µM. The TGI in the assay on HL-60(TB) leukemia was 5.46 µM and 2.43 µM; in the assay with HOP-62 NSCLC, > 10 µM and 14.2 µM; with LOX IMVI melanoma, 2.46 µM and 4.97 µM; in the assay on K-562 leukemia, 6.27 µM and 2.5 µM.

As for `CC(=O)O[C@H]1CC[C@@]2(C)C(=CC[C@H]3[C@@H]4CC[C@H](c5cc(C(F)(F)F)n(C(C)=O)n5)[C@@]4(C)CC[C@@H]32)C1`, the TGI was 13.9 µM in the assay on UACC-257 melanoma; over 48.1 µM in the assay with SF-268 CNS; 21.3 µM with EKVX NSCLC; 15.8 µM with HCT-116 colon; 14.9 µM with TK-10 renal; over 60.8 µM in the assay with HS 578T breast. Also, the TGI in the assay with HL-60(TB) leukemia turned out to be 15.4 µM; in the assay on HOP-62 NSCLC, 21.2 µM; with LOX IMVI melanoma, 22.4 µM; in the assay with K-562 leukemia, 12.5 µM.

On to `CCc1cccc(C)c1NC(=O)c1sc2nc3c(cc2c1N)CCCCC3`, for which the GI50 with UACC-257 melanoma is 18.2 µM; with SF-268 CNS it was 7.69 µM; in the assay with EKVX NSCLC, 4.17 µM; in the assay on HCT-116 colon, 3.58 µM; with TK-10 renal, 13.4 µM; in the assay on HS 578T breast, 4.87 µM. Besides, the GI50 with HL-60(TB) leukemia was 2.85 µM; with HOP-62 NSCLC, 4.34 µM; in the assay with LOX IMVI melanoma, 5.3 µM. The TGI in the assay with UACC-257 melanoma, in the assay with SF-268 CNS, in the assay on EKVX NSCLC, with HCT-116 colon, in the assay with TK-10 renal and with HS 578T breast was over 100 µM in each case. The TGI was 11.8 µM with HL-60(TB) leukemia, over 100 µM in the assay on HOP-62 NSCLC and 91.5 µM in the assay on LOX IMVI melanoma.

In the case of `[Cl][Hg][Cl]`, the GI50 in the assay on UACC-257 melanoma was 17.7 µM; with SF-268 CNS, 18.1 µM; with EKVX NSCLC, 19.9 µM; in the assay with HCT-116 colon, 18 µM; in the assay on TK-10 renal, 17.5 µM; in the assay with HS 578T breast, 22.8 µM. Besides, the GI50 in the assay with HL-60(TB) leukemia is 3.24 µM; in the assay on HOP-62 NSCLC, 16.7 µM; in the assay with LOX IMVI melanoma, 1.72 µM; with K-562 leukemia, 0.302 µM. The TGI was found to be 34.9 µM with UACC-257 melanoma; 46.9 µM in the assay with SF-268 CNS; 34.6 µM in the assay with EKVX NSCLC; 33.4 µM in the assay on HCT-116 colon; 31.5 µM in the assay with TK-10 renal; 57.4 µM with HS 578T breast. Further, the TGI in the assay with HL-60(TB) leukemia was found to be 10.1 µM; in the assay on HOP-62 NSCLC, 31.3 µM; in the assay with LOX IMVI melanoma it was 16 µM; with K-562 leukemia, 4.33 µM.

Regarding `CC(C)=CCc1c(OC(=O)c2c(C)cc(O)cc2O)cc(CO)c(CO)c1O`, the TGI in the assay with UACC-257 melanoma was over 100 µM; in the assay on SF-268 CNS it was 85 µM; in the assay on EKVX NSCLC, over 100 µM; in the assay with HCT-116 colon, 43.9 µM; with TK-10 renal, 77.9 µM; in the assay with HS 578T breast it was 54.8 µM. Also, the TGI in the assay with HL-60(TB) leukemia was 19.1 µM; with LOX IMVI melanoma, 40.9 µM; with K-562 leukemia, 32.9 µM.

As to `C#Cc1cccc(N2C(=O)CCC2=O)c1`, the TGI came to 29.9 µM in the assay with UACC-257 melanoma; 33.1 µM with SF-268 CNS; 34.3 µM in the assay on EKVX NSCLC; 23.1 µM with HCT-116 colon; 29.9 µM with TK-10 renal; 85.8 µM in the assay on HS 578T breast. For the same compound, the TGI with HL-60(TB) leukemia turned out to be 10.4 µM; in the assay on LOX IMVI melanoma it was 32 µM; in the assay with K-562 leukemia, 20.9 µM.

Take `COc1ccc2c(c1)C(=O)c1c-2n(CCCN=[N+]=[N-])c(=O)c2cc(OC)c(OC)cc12`: the GI50 with UACC-257 melanoma is over 100 µM; in the assay on SF-268 CNS it was 79.4 µM; in the assay on EKVX NSCLC it was over 100 µM; in the assay on HCT-116 colon, 27.8 µM; in the assay on TK-10 renal it was 19.5 µM; with HS 578T breast it was 70 µM. Besides, the GI50 with HL-60(TB) leukemia was 13 µM; in the assay with HOP-62 NSCLC, 11.6 µM; in the assay on LOX IMVI melanoma, 25.1 µM. The TGI with UACC-257 melanoma was over 100 µM; in the assay with SF-268 CNS it was over 100 µM; in the assay on EKVX NSCLC, over 100 µM; with HCT-116 colon, over 100 µM; in the assay on TK-10 renal, 72.1 µM; in the assay on HS 578T breast, over 100 µM. For the same compound, the TGI with HL-60(TB) leukemia is 25.7 µM; in the assay on HOP-62 NSCLC, 63.2 µM; in the assay with LOX IMVI melanoma it was over 100 µM.

With `CCN(Cc1cccc(F)c1)c1ccc(CO)c(Cl)c1`, the GI50 in the assay with UACC-257 melanoma is 0.114 µM; in the assay with SF-268 CNS, 29.9 µM; in the assay on EKVX NSCLC, 22.3 µM; with HCT-116 colon it was 0.0674 µM; in the assay on HS 578T breast, 19.5 µM; with HL-60(TB) leukemia, 19.6 µM. The results for the GI50 in the assay with HOP-62 NSCLC, in the assay on LOX IMVI melanoma and in the assay on K-562 leukemia were 1.02 µM, 14.1 µM and 3.54 µM, respectively. Moreover, the TGI was 0.344 µM in the assay with UACC-257 melanoma; over 82.8 µM with SF-268 CNS; over 76 µM in the assay on EKVX NSCLC; 5.85 µM with HCT-116 colon; 74.4 µM in the assay with HS 578T breast; over 69.8 µM in the assay with HL-60(TB) leukemia. Besides, the TGI with HOP-62 NSCLC is over 37.6 µM; in the assay on LOX IMVI melanoma, 28.8 µM; with K-562 leukemia it was over 100 µM.
